Measured values reported in BindingDB's records for doi:10.1016/j.bmcl.2015.05.094 (Orleans University, 2015).

Assay: Antagonist activity at human alpha-7 nicotinic acetylcholine receptor expressed in rat GH3 cells assessed as inhibition of epibatidine-induced Ca2+ influx preincubated for 5 mins followed by epibatidine induction measured for 3 mins by fluorescence assay

COc1ccc(CC2C[N+]3(C)CCC2CC3)cc1 (stereo unspecified)
IC50: 12.3 µM
